Read-outs that look alike come from different tables or passages of the source.
How the values were obtained:
patients with ALGS = settings: cited from earlier work
[1] = Water content and water uptake of crystal modification 1 with relative humidity; type: physicochemical
Text: Crystal modification 1 contains void volumes that are capable of containing up to about 2 moles of water associated with the crystal per mole of odevixibat, depending on the relative humidity. This form is therefore formally a channel hydrate. At about 30% relative humidity, however, crystal modification 1 contains a substantially stoichiometric amount of about 1.5 moles of water per mole of organic compound and is thus a sesquihydrate. The substantially stoichiometric amount of water is considered advantageous, as the water content of the crystals remains substantially constant even with humidity changes within the normal relative humidity range of about 30% to about 70% RH.
Whereas crystal modification 1 is a sesquihydrate containing about 3.5% (w/w) water at about 30% relative humidity (based on the total crystal weight), it has been observed that the crystal can take up an additional 1.5% (w/w) water when the humidity is increased up to 95% RH. The sorption and desorption of this additional water is fully reversible. The additional water may be adsorbed on the surface or may further fill the channels of the structure. […]

For cholestyramine, the transaminase levels (patients with ALGS; human, in vivo) is given as “Elevations in transaminase levels have been reported”.

With `CCCCC1(CCCC)CN(c2ccccc2)c2cc(SC)c(OCC(=O)N[C@@H](C(=O)N[C@@H](CC)C(=O)O)c3ccc(O)cc3)cc2S(=O)(=O)N1` [crystal modification 1] the “water content (based on the total crystal weight)” value ([1]; about 30% relative humidity) was “about 3.5 % (w/w)” and the “additional water taken up” value ([1]; humidity increased up to 95% RH, fully reversible) was 1.5 % (w/w).

In the case of `CCCCC1(CCCC)CS(=O)(=O)c2ccc(N(C)C)cc2[C@@H](c2ccc(OCc3ccc(C[N+]45CCN(CC4)CC5)cc3)cc2)[C@H]1O` [maralixibat], the transaminase levels (patients with ALGS; patients with ALGS) is given as “Elevations in transaminase levels have been reported”.
